In EP1628646B1, “USE OF PPAR-GAMMA AGONISTS AS ANTI-INFECTIVE AGENTS” (priority 2003, dated 2004):

Experiments:
macrophages [1] = assay: Production of oxidants by cultured macrophages, luminol chemiluminescence; type: cell-based, souris; conditions: for Production d'agents oxydants, avec ANS / Production d'agents oxydants, avec ODN / Production d'agents oxydants, sans antisens: 1 h; for Production d'agents oxydants, avec ANS: macrophages incubated 3 days with non-specific antisense ANS, control 6972 ± 90; for Production d'agents oxydants, avec ODN: macrophages incubated 3 days with specific antisense ODN, control 6795 ± 178; for Production d'agents oxydants, sans antisens: without antisense, control 6737 ± 139
Protocol: Concernant le traitement à l'antisens ODN, une séquence complémentaire à la région 3' non traduite de l'ARNm du MMR (Yamamoto et al., Infect Immun, 1997, 65:1077-82), on incube l'antisens ODN (100 nM) avec 10 µg de lipide cationique Lipofectin (GIBCO, France) à 37°C pendant 5 min selon la méthode Capacciolis et al. (Biochem Biophys Res Commun, 1998, 197:818-25) puis on l'ajoute aux macrophages cultivés dans le DMEM sans sérum. Les cellules sont incubées pendant 4 heures à 37°C avec 5 % de CO2 atmosphérique. Le milieu est remplacé par du SFM contenant l'antisens ODN mais sans Lipofectin. Les cultures sont incubées pendant 3 jours avec un changement journalier du milieu. La concentration de l'antisens ODN utilisée n'entraîne aucune toxicité significative sur les macrophages. Les macrophages non traités et les macrophages traités avec la Lipofectin seule servent de contrôle. La séquence nucléique de l'antisens ODN est exposée dans le tableau 2. Le même traitement est réalisé avec un antisens non spécifique de l'ARNm du MMR, l'antisens ANS dont la séquence nucléique est exposée dans le tableau 2.
Pour les tests de production d'agents oxydants, l'explosion respiratoire oxygène-dépendante des macrophages traités par les agonistes de PPARγ est mesurée par chimiluminescence. Les macrophages (2.10^5) sont transférés sur des boîtes de culture de 5 mm de diamètre. Après activation des cellules, la production d'agents oxydants par les macrophages, en présence ou en absence de C. albicans, est mesurée par chimiluminescence en présence de luminol à 37°C. L'émission de chimiluminescence est enregistrée en continu pendant 1 heure après incubation des cellules avec le luminol (66 µM). Pour évaluer la production de l'anion superoxyde (O2^-), la chimiluminescence est mesurée en présence de SOD, un inhibiteur spécifique de la production d'anion superoxyde. Pour évaluer la production d'oxyde nitrique (NO), la chimiluminescence est mesurée en présence de la L-NMMA (NG-monométhyl-arginine, un compétiteur spécifique de la L-arginine pour la production de NO). Aucun des inhibiteurs n'affecte la viabilité aux concentrations utilisées.
Les analyses statistiques se basent sur la mesure de la surface sous la courbe et sont exprimées en coups x secondes.
La capacité des macrophages à produire de l'anion superoxyde et du monoxyde d'azote et leur modulation par la 15d-PGJ2 ont été également étudiées par la méthode de chimiluminescence qui permet d'évaluer non seulement la production d'anions superoxydes mais aussi celle du peroxynitrite produit au cours de l'interaction entre le monoxyde d'azote et l'anion superoxyde.
Afin d'évaluer la production d'anion superoxyde, la chimiluminescence a été mesurée- en présence ou non de SOD (enzyme métabolisant O2^- en H2O2) alors que la production de monoxyde d'azote est évaluée en présence d'un compétiteur de l'arginine qui est la L-NMMA. Tableau 3 : Effet des ligands agonistes de PPARγ sur la production d'agents oxydants par les macrophages en présence ou en absence de levure. L'évaluation de la production d'agents oxydants a été déterminée sur des macrophages en culture par la technique de chimiluminescence.
Cette étude a été réalisée afin de déterminer si l'augmentation de la production d'agents oxydants sous l'effet des agonistes de PPARγ dépendait ou non de la modulation des récepteurs mannose par ces différents traitements. Dans cet objectif, la modulation de la production d'agents oxydants par les macrophages transfectés par l'antisens spécifique des ARNm des récepteurs mannose a été étudiée. Après traitement avec les agonistes de PPARγ, le dosage de la quantité d'agents oxydants produits par les macrophages transfectés a été réalisé par chimiluminescence. Les résultats sont présentés dans le tableau 5. Tableau 5 : Implication du récepteur mannose dans la production d'agents oxydants des macrophages traités par les ligands de PPARγ. […]

cellules RAW 264.7 = assay: Mannose receptor expression on RAW 264.7 cells transfected with CMV-luciférase or CMV-PPARγ, flow cytometry; conditions: 24 h, 1 µM 15d-PGJ2, 5 µM ciglitazone, 5 µM rosiglitazone; for Moyenne géométrique de l'intensité de fluorescence, CMV-PPAR-γ: RAW 264.7 transfected with CMV-PPARγ, control 53,87; for Moyenne géométrique de l'intensité de fluorescence, CMV-LUC: RAW 264.7 transfected with CMV-luciférase, control 47,51
macrophages péritonéaux [2] = assay: Phagocytosis of [3H]uracil-labelled C. albicans by treated peritoneal macrophages in vitro; type: cell-based, souris; conditions: effect of the PPARγ antagonist added; figure 2
Protocol: Les macrophages, quant à eux, proviennent soit du péritoine de souris femelles SWISS (Centre d'élevage, Etablissement Janvier, France), soit du sang périphérique de donneurs sains. Ces macrophages, de souris ou d'humain, sont cultivés dans un milieu de culture SFM ("serum-free medium") optimisé pour la culture des macrophages, commercialisé par la société GibcoBRL, France. L'adhésion des cellules se produit après environ 2 heures de culture à 37°C sous atmosphère à 5 % de CO2. Les cellules n'adhérant pas à la boîte de culture sont éliminées par rinçage au PBS (GibcoBRL, France).
Pour étudier le mécanisme d'ingestion de C. albicans par les macrophages, des levures préalablement marquées par [^3H]uracile sont utilisées. Trois colonies de C. albicans sont dispersées dans 1 ml de bouillon Sabouraud contenant 150 µCi de [^3H]uracile. Après 24 heures de culture à 37°C sous agitation, les blastospores marqués sont centrifugés et resuspendus dans le SFM enrichi avec 1,8 % de glucose. Pour chaque essai, les monocouches de macrophages cultivées sur les plaques 24 puits sont traitées avec les agonistes de PPARγ pendant 20 heures, puis infectées avec C. albicans marqué et viable (dans une proportion macrophages/levures de 1:1) et laissées à incuber pendant 1 heure à 37°C, puis 2 heures à 5°C. Soumis à 5°C, les mécanismes de phagocytose sont bloqués. […]

récepteur mannose [3] = assay: Mannose receptor expression on macrophages, FITC-mBSA flow cytometry; type: cell-based, souris; conditions: antagonist 0,1 µM, 24 h; figure 5
Protocol: Pour les essais de cytométrie en flux, les macrophages sont rincés au PBS glacé. Le marquage des MMR est réalisé pendant une heure, dans la glace, à la manière d'un ligand spécifique conjugué avec de l'albumine bovine mannosylée marquée à la fluorescéine FITC (840 nM) (SIGMA, France). Afin de faciliter la sélection des populations de cellules viables, une coloration à l'iodure de propidium est réalisée. Toutes les analyses sont effectuées par le FACScalibur (Becton-Dickinson) en utilisant le logiciel CellQuest.
Dans une deuxième étape, l'induction de l'expression du récepteur mannose des macrophages péritonéaux murins sous l'effet des différents traitements a été étudiée par cytométrie de flux en présence d'un antagoniste irréversible de PPARγ, le GW 9662.
Ces résultats sont confirmés par la figure 5 qui montre que l'augmentation de l'expression du récepteur mannose à la surface des macrophages sous l'effet de la 15d-PGJ2 est antagonisée par le GW 9662.
Pour ce faire, les macrophages ont été traités pendant 3 jours avec l'antisens spécifique de l'ARNm du récepteur mannose (ODN). […] Les cellules ont été ensuite incubées avec la mBSA marquée au FITC, puis analysées par cytométrie en flux. L'intensité de la fluorescence analysée est représentée à la figure 6.

macrophages [4] = assay: Production of oxidants by macrophages from mice treated in vivo, chemiluminescence; design: species or system souris; conditions: macrophages from SWISS and RAG-2 mice treated in vivo, vs control mice; figure 7
Source text: Afin d'évaluer la production d'agents oxydants (radicaux libres oxygénés et monoxyde d'azote) par les macrophages après la mise en culture des macrophages, les activités conjointes de la NADPH oxydase et de la NOsynthase inductible sont mesurées par chimiluminescence en présence d'une sonde chimiluminogène, Luminol (SIGMA, France) : 5-amino2,3-diydro-1,4-phtalazine-dione. La production de chimiluminescence sera analysée avec un luminomètre (Wallac Victor II, Finlande) piloté par un ordinateur. Le luminol permet, en présence d'agents oxydants, l'émission de photons captés par le photomultiplicateur de la chambre noire du luminomètre thermostaté à 37°C et transformés en impulsions électriques quantifiables. Les valeurs de chimiluminescence seront enregistrées continuellement pendant 1 heure après incubation des cellules avec le luminol ([…]) et en présence ou non de levures.
L'évaluation de la production d'agents oxydants par les macrophages, en présence ou en absence de la levure, a été déterminée sur des macrophages en culture par la technique de chimiluminescence. La figure 7 expose les résultats obtenus, en nombre de coups secondes (C x S) comptabilisés pendant 1 heure, pour chaque test.

récepteur mannose [5] = assay: Mannose receptor expression on macrophages from mice treated in vivo, flow cytometry; conditions: cells from SWISS and RAG-2 mice treated in vivo; figure 8
Source text: (§1) Ces injections ont été renouvelées tous les jours durant 5 jours.
La quantité de molécule de mBSA fixée, reflet direct de la quantité de récepteurs mannose présente sur les cellules, a été analysée à l'aide d'un cytomètre en flux (FACScalibur, Becton Dickinson).

macrophages péritonéaux [6] = assay: Phagocytosis of C. albicans by peritoneal macrophages from infected mice treated in vivo; conditions: treated i.p. (15d-PGJ2 0,01 µmoles, rosiglitazone 0,1 µmoles), 1 h challenge 1:1
Protocol: L'étude in vitro a été réalisée sur des lots de 10 souris, soit immunocompétentes (SWISS) ou immunodéficientes (RAG-2), qui ont été infectées par C. albicans.
(§2) Les souris hébergées dans des cages stériles ont été infectées par gavage de 500 µl d'une suspension de levures (2.10^7 cfu.ml^-1).
as §1
Après une incubation de 2 heures à l'étuve à 37°C, 5 % CO2, les cellules non adhérentes ont été éliminées par deux rinçages en PBS.
Afin d'évaluer la capacité des macrophages à phagocyter C. albicans, une technique basée sur l'incorporation de nucléotides radioactifs (Uracile tritié) au niveau de l'ARN des levures en voie de multiplication a été réalisée. Les levures pré-marquées sont déposées sur les tapis macrophagiques et mises à incuber à 37°C sous 5 % CO2. […] Sachant que la radioactivité mesurée dans le lysat est proportionnelle à la quantité de levures phagocytées et que celle mesurée dans les surnageants est proportionnelle à la quantité de levures externes, le pourcentage de levures phagocytées par rapport à la quantité de levures totales sera déterminé selon la formule suivante : %Phagocytose = (dpmlysat)/(dpmlysat + dpmsurnageant) [formula]

C. albicans = assay: Gastrointestinal candidiasis in mice: number of yeasts in organs by CFU and real-time quantitative PCR; conditions: SWISS and RAG-2 mice, oesophage, estomac, caecum, vs untreated mice, figure 10
Protocol: En parallèle, ce même protocole a été réalisé sur des souris SWISS immunocompétentes (Centre d'élevage - Etablissement Janvier, France).
as §2, §1
En cours et en fin d'expérimentation, des prélèvements sanguins ont été effectués afin de suivre la présence des levures dans le sang des souris. […] Au terme du protocole, les souris ont été euthanasiées et les différents organes ont été prélevés stérilement en vue de quantifier le nombre de levures présentes dans les différents organes par CFU et PCR quantitative en temps réel.
Pour quantifier le nombre de levures présentes dans les différents organes par CFU, après homogénéisation de chaque tissu, plusieurs dilutions sont réalisées et ensemencées dans des boîtes de culture. Les boîtes sont incubées à 35°C pendant 24 à 48 heures et le nombre de colonies est alors compté.
Pour quantifier le nombre de levures présentes dans les différents organes par PCR, après homogénéisation des différents organes, l'ADN total est extrait par la méthode phénol/chloroforme et soumis à une Q-PCR en temps réel. […] La détection se fait par hybridation de deux sondes marquées spécifiques de C. albicans (transfert de fluorescence).

Structure (SMILES) | Production d'agents oxydants, avec ANS (macrophages [1]) [coups x secondes] | Production d'agents oxydants, avec ODN (macrophages [1]) [coups x secondes] | Production d'agents oxydants, sans antisens (macrophages [1]) [coups x secondes] | Moyenne géométrique de l'intensité de fluorescence, CMV-PPAR-γ (cellules RAW 264.7) | Moyenne géométrique de l'intensité de fluorescence, CMV-LUC (cellules RAW 264.7) | augmentation de la capacité de phagocytose des macrophages traités par les agonistes de PPARγ (macrophages péritonéaux [2]) | augmentation de l'expression du récepteur mannose à la surface des macrophages sous l'effet de la 15d-PGJ2 (récepteur mannose [3]) | Production d'agents oxydants pendant 1 heure, + Levures L-NMMA (macrophages [1]; with yeast, in presence of L-NMMA) [coups x secondes] | Production d'agents oxydants pendant 1 heure, + Levures SOD (macrophages [1]; with yeast, in presence of SOD) [coups x secondes] | Production d'agents oxydants pendant 1 heure, + Levures (macrophages [1]; with yeast, no inhibitor) [coups x secondes] | Production d'agents oxydants pendant 1 heure, - Levure (macrophages [1]; without yeast) [coups x secondes] | production basale d'agents oxydants par les macrophages (macrophages [4]) | quantité d'albumine bovine mannosylée marquée à la fluorescéine présente sur les macrophages (récepteur mannose [5]) | Index de phagocytose, RAG-2 (macrophages péritonéaux [6]; RAG-2 mice infected with C. albicans, control 59,82 ± 2,43) | Index de phagocytose, SWISS (macrophages péritonéaux [6]; SWISS mice infected with C. albicans, control 42,97 ± 1,20) | colonisation des différents organes (nombre de levures) (C. albicans)
CC1(COc2ccc(CC3SC(=O)NC3=O)cc2)CCCCC1 (centres unmarked) [ciglitazone] | 8322 ± 183 | 7109 ± 155 | 8398 ± 104 | 64,3 | 38,51 |  |  |  |  |  |  |  |  |  |  | 
O=C(Nc1ccccc1)c1cc([N+](=O)[O-])ccc1Cl [GW 9662] |  |  |  |  |  | inhibée | antagonisée |  |  |  |  |  |  |  |  | 
CN(CCOc1ccc(CC2SC(=O)NC2=O)cc1)c1ccccn1 (centres unmarked) [rosiglitazone] | 8813 ± 190 | 7197 ± 77 | 8960 ± 179 | 61,51 | 37,94 |  |  |  |  |  |  |  |  |  |  | 
CCCCCC=CC=C1C(=O)C=CC1CC=CCCCC(=O)O (centres unmarked) [15d-PGJ2, 15-déoxy-Δ^12,14-prostaglandine J2] | 9678 ± 106 | 7012 ± 98 | 9161 ± 85 | 73 | 44,29 |  |  | 14258 ± 216 | 7228 ± 212 | 13905 ± 328 | 7469 ± 238 | la même quantité basale d'agents oxydants | significativement augmentée | 76,32 ± 1,89 | 65,26 ± 2,11 | diminution significative de la colonisation
